Data reported in US20100267561A1, “HERBICIDAL PYRIDAZINONE DERIVATIVES” (priority 2007, published 2010).

How the values were obtained:
Type in all cases: in vivo
[1] = system: large crabgrass (Digitaria sanguinalis); experiment: Test A pre-/postemergence plant response
In short: (§1)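 Ratings run 0–100 (100 = complete control), assigned visually against untreated controls roughly 10 days after treatment in a greenhouse. Compounds, formulated in non-phytotoxic solvent containing surfactant, were applied as a soil-directed preemergence spray and concurrently postemergence to one- to two-leaf plants 2–10 cm tall.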

[2] = system: giant foxtail (Setaria faberi); experiment: Test A pre-/postemergence plant response
In short: as §1

[3] = system: velvetleaf (Abutilon theophrasti); experiment: Test A pre-/postemergence plant response
In short: as §1

[4] = system: wild mustard (Sinapis arvensis); experiment: Test C pre-/postemergence plant response
In short: (§2)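 Formulated in a surfactant-containing non-phytotoxic solvent, compounds were tested under controlled growth conditions as preemergence and postemergence treatments. Ratings from 0 (no effect) to 100 (complete control) were assigned visually relative to controls 15 to 25 days later.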

[5] = system: blackgrass (Alopecurus myosuroides); experiment: Test C pre-/postemergence plant response
In short: as §2

[6] = system: windgrass (Apera spica-venti); experiment: Test C pre-/postemergence plant response
In short: as §2

[7] = system: green foxtail (Setaria viridis); experiment: Test C pre-/postemergence plant response
In short: as §2

wild oat (Avena fatua) = experiment: Test C pre-/postemergence plant response
In short: as §2

[8] = system: spring barley (Hordeum vulgare); experiment: Test C pre-/postemergence plant response
In short: as §2

[9] = system: canarygrass (Phalaris minor); experiment: Test C pre-/postemergence plant response; conditions: Preemergence
In short: as §2

[10] = system: winter wheat (Triticum aestivum); experiment: Test C pre-/postemergence plant response
In short: as §2

[11] = system: downy bromegrass (Bromus tectorum); experiment: Test C pre-/postemergence plant response
In short: as §2

[12] = system: Italian ryegrass (Lolium multiflorum); experiment: Test C pre-/postemergence plant response
In short: as §2

[13] = system: winter barley (Hordeum vulgare); experiment: Test C pre-/postemergence plant response
In short: as §2

[14] = system: annual bluegrass (Poa annua); experiment: Test C pre-/postemergence plant response
In short: as §2

[15] = Postemergence, 31 g ai/ha, 0 to 100 scale, 0 no effect, 100 complete control
[16] = Postemergence, 125 g ai/ha, 0 to 100 scale, 0 no effect, 100 complete control
[17] = Preemergence, 31 g ai/ha, 0 to 100 scale, 0 is no effect, 100 is complete control
[18] = Preemergence, 125 g ai/ha, 0 to 100 scale (0 no effect, 100 complete control)
[19] = Preemergence, 8 g ai/ha, scale 0 to 100 (0 no effect, 100 complete control)
[20] = Preemergence, 16 g ai/ha, scale 0 to 100 (0 no effect, 100 complete control)
[21] = Preemergence, 31 g ai/ha, scale 0 to 100 (0 no effect, 100 complete control)
[22] = Preemergence, 62 g ai/ha, scale 0 to 100, 0 no effect, 100 complete control
[23] = 8 g ai/ha, scale 0 to 100 (0 no effect, 100 complete control)
[24] = 16 g ai/ha, scale 0 to 100 (0 no effect, 100 complete control)
[25] = 31 g ai/ha, scale 0 to 100 (0 no effect, 100 complete control)
[26] = 62 g ai/ha, scale 0 to 100, 0 no effect, 100 complete control
[27] = Postemergence, 8 g ai/ha, scale 0 to 100, 0 no effect, 100 complete control
[28] = Postemergence, 16 g ai/ha, scale 0 to 100, 0 no effect, 100 complete control
[29] = Postemergence, 31 g ai/ha, scale 0 to 100, 0 no effect, 100 complete control
[30] = Postemergence, 62 g ai/ha, scale 0 to 100, 0 no effect, 100 complete control

Cc1cc(-c2ccc(Cl)cc2)nn1-c1c(OC(=O)c2cccs2)cnn(C)c1=O [Compound 52]
40: Plant response rating, Blackgrass [5, 19] | Plant response rating, Oat, Wild (wild oat (Avena fatua); [20]) | Plant response rating, Barley, Spring [8, 21] | Plant response rating, Wheat, Winter [10, 21]
50: Plant response rating, Barley, Winter [13, 22]
65: Plant response rating, Canarygrass [9, 24] | Plant response rating, Wheat, Winter [10, 22] | Plant response rating, Ryegrass, Italian [12, 20]
20: Plant response rating, Velvetleaf [3, 16]
95: Plant response rating, Blackgrass [5, 21] | Plant response rating, Blackgrass [5, 22] | Plant response rating, Canarygrass [9, 26]
70: Plant response rating, Windgrass [6, 21] | Plant response rating, Windgrass [6, 22]
10: Plant response rating, Bluegrass [14, 21] | Plant response rating, Bluegrass [14, 22]
80: Plant response rating, Foxtail, Giant [2, 15] | Plant response rating, Bromegrass, Downy [11, 22]
90: Plant response rating, Crabgrass, Large [1, 16] | Plant response rating, Foxtail, Giant [2, 16] | Plant response rating, Canarygrass [9, 25] | Plant response rating, Ryegrass, Italian [12, 21]
15: Plant response rating, Bromegrass, Downy [11, 21]
60: Plant response rating, Crabgrass, Large [1, 15] | Plant response rating, Blackgrass [5, 20] | Plant response rating, Oat, Wild (wild oat (Avena fatua); [21]) | Plant response rating, Oat, Wild (wild oat (Avena fatua); [22]) | Plant response rating, Barley, Spring [8, 22]
100: Plant response rating, Crabgrass, Large [1, 18] | Plant response rating, Foxtail, Giant [2, 17] | Plant response rating, Foxtail, Giant [2, 18] | Plant response rating, Foxtail, Green [7, 20] | Plant response rating, Foxtail, Green [7, 21] | Plant response rating, Foxtail, Green [7, 22] | Plant response rating, Ryegrass, Italian [12, 22]
75: Plant response rating, Foxtail, Green [7, 19]
0: Plant response rating, Velvetleaf [3, 15] | Plant response rating, Velvetleaf [3, 18] | Plant response rating, Mustard, Wild [4, 19] | Plant response rating, Mustard, Wild [4, 20] | Plant response rating, Mustard, Wild [4, 21] | Plant response rating, Mustard, Wild [4, 22] | Plant response rating, Windgrass [6, 19] | Plant response rating, Windgrass [6, 20] | Plant response rating, Oat, Wild (wild oat (Avena fatua); [19]) | Plant response rating, Barley, Spring [8, 19] | Plant response rating, Barley, Spring [8, 20] | Plant response rating, Canarygrass [9, 23] | Plant response rating, Wheat, Winter [10, 19] | Plant response rating, Wheat, Winter [10, 20] | Plant response rating, Bromegrass, Downy [11, 19] | Plant response rating, Bromegrass, Downy [11, 20] | Plant response rating, Ryegrass, Italian [12, 19] | Plant response rating, Barley, Winter [13, 19] | Plant response rating, Barley, Winter [13, 20] | Plant response rating, Barley, Winter [13, 21] | Plant response rating, Bluegrass [14, 19] | Plant response rating, Bluegrass [14, 20]
30: Plant response rating, Crabgrass, Large [1, 17]

CCOC(=O)Oc1cnn(C)c(=O)c1-n1nc(-c2ccc(Cl)cc2)cc1C [Compound 53]
70: Plant response rating, Blackgrass [5, 19] | Plant response rating, Windgrass [6, 30] | Plant response rating, Wheat, Winter [10, 22]
98: Plant response rating, Blackgrass [5, 21] | Plant response rating, Blackgrass [5, 22] | Plant response rating, Foxtail, Green [7, 28]
30: Plant response rating, Windgrass [6, 20] | Plant response rating, Bromegrass, Downy [11, 29]
0: Plant response rating, Velvetleaf [3, 15] | Plant response rating, Velvetleaf [3, 16] | Plant response rating, Velvetleaf [3, 17] | Plant response rating, Velvetleaf [3, 18] | Plant response rating, Mustard, Wild [4, 27] | Plant response rating, Mustard, Wild [4, 28] | Plant response rating, Mustard, Wild [4, 29] | Plant response rating, Mustard, Wild [4, 30] | Plant response rating, Mustard, Wild [4, 19] | Plant response rating, Mustard, Wild [4, 21] | Plant response rating, Mustard, Wild [4, 22] | Plant response rating, Windgrass [6, 27] | Plant response rating, Windgrass [6, 28] | Plant response rating, Windgrass [6, 19] | Plant response rating, Oat, Wild (wild oat (Avena fatua); [19]) | Plant response rating, Oat, Wild (wild oat (Avena fatua); [20]) | Plant response rating, Barley, Spring [8, 27] | Plant response rating, Barley, Spring [8, 19] | Plant response rating, Barley, Spring [8, 20] | Plant response rating, Canarygrass [9, 23] | Plant response rating, Canarygrass [9, 24] | Plant response rating, Wheat, Winter [10, 27] | Plant response rating, Wheat, Winter [10, 19] | Plant response rating, Wheat, Winter [10, 20] | Plant response rating, Bromegrass, Downy [11, 27] | Plant response rating, Barley, Winter [13, 27] | Plant response rating, Barley, Winter [13, 19] | Plant response rating, Bluegrass [14, 27] | Plant response rating, Bluegrass [14, 28] | Plant response rating, Bluegrass [14, 29] | Plant response rating, Bluegrass [14, 19]
25: Plant response rating, Oat, Wild (wild oat (Avena fatua); [27]) | Plant response rating, Ryegrass, Italian [12, 19]
40: Plant response rating, Barley, Spring [8, 28] | Plant response rating, Barley, Spring [8, 29] | Plant response rating, Barley, Spring [8, 21] | Plant response rating, Barley, Winter [13, 29] | Plant response rating, Bluegrass [14, 21]
35: Plant response rating, Bluegrass [14, 30]
95: Plant response rating, Foxtail, Green [7, 27] | Plant response rating, Canarygrass [9, 25] | Plant response rating, Canarygrass [9, 26] | Plant response rating, Wheat, Winter [10, 30] | Plant response rating, Barley, Winter [13, 30]
75: Plant response rating, Blackgrass [5, 20] | Plant response rating, Windgrass [6, 21] | Plant response rating, Oat, Wild (wild oat (Avena fatua); [21]) | Plant response rating, Barley, Spring [8, 22] | Plant response rating, Ryegrass, Italian [12, 27]
65: Plant response rating, Blackgrass [5, 27] | Plant response rating, Wheat, Winter [10, 29] | Plant response rating, Bluegrass [14, 22]
50: Plant response rating, Windgrass [6, 29] | Plant response rating, Wheat, Winter [10, 21] | Plant response rating, Barley, Winter [13, 21] | Plant response rating, Barley, Winter [13, 22]
10: Plant response rating, Wheat, Winter [10, 28] | Plant response rating, Bromegrass, Downy [11, 19] | Plant response rating, Barley, Winter [13, 28]
85: Plant response rating, Oat, Wild (wild oat (Avena fatua); [22]) | Plant response rating, Bromegrass, Downy [11, 22]
90: Plant response rating, Crabgrass, Large [1, 17] | Plant response rating, Foxtail, Giant [2, 15] | Plant response rating, Windgrass [6, 22] | Plant response rating, Foxtail, Green [7, 19] | Plant response rating, Foxtail, Green [7, 20] | Plant response rating, Oat, Wild (wild oat (Avena fatua); [28]) | Plant response rating, Bromegrass, Downy [11, 30]
80: Plant response rating, Crabgrass, Large [1, 15] | Plant response rating, Bromegrass, Downy [11, 21]
20: Plant response rating, Bromegrass, Downy [11, 28] | Plant response rating, Bromegrass, Downy [11, 20] | Plant response rating, Bluegrass [14, 20]
15: Plant response rating, Barley, Winter [13, 20]
100: Plant response rating, Crabgrass, Large [1, 16] | Plant response rating, Crabgrass, Large [1, 18] | Plant response rating, Foxtail, Giant [2, 16] | Plant response rating, Foxtail, Giant [2, 17] | Plant response rating, Foxtail, Giant [2, 18] | Plant response rating, Blackgrass [5, 28] | Plant response rating, Blackgrass [5, 29] | Plant response rating, Blackgrass [5, 30] | Plant response rating, Foxtail, Green [7, 29] | Plant response rating, Foxtail, Green [7, 30] | Plant response rating, Foxtail, Green [7, 21] | Plant response rating, Foxtail, Green [7, 22] | Plant response rating, Oat, Wild (wild oat (Avena fatua); [29]) | Plant response rating, Oat, Wild (wild oat (Avena fatua); [30]) | Plant response rating, Barley, Spring [8, 30] | Plant response rating, Ryegrass, Italian [12, 28] | Plant response rating, Ryegrass, Italian [12, 29] | Plant response rating, Ryegrass, Italian [12, 30] | Plant response rating, Ryegrass, Italian [12, 20] | Plant response rating, Ryegrass, Italian [12, 21] | Plant response rating, Ryegrass, Italian [12, 22]
